Experimental findings from patent US7666891B2, “Heterocyclic antiviral compounds” (Roche Palo Alto LLC, priority 2004, dated 2010) are described below.

Where two headings read alike, the source gives them in different places.

A short description of series [1]: Determination of pharmacokinetic parameters in rats after oral gavage. Type of series: in vivo, rat. As to conditions: female rats; for AUC (area under concentration vs. time curve, 0–24 h): parent triazolone measured in plasma; for concentration at 2 h / concentration at 6 h: rat, plasma; for concentration at 2 h: read-out: Cp (2 h) plasma concentration; for concentration at 6 h: read-out: Cp (6 h) plasma concentration. The protocol: Intact female rats weighing 200-250 g were used. Groups of three or five rats were used for each dose level of an experimental compound and one rat was used as a vehicle control. Animals were allowed normal access to chow and water throughout the experiment. The test substance was formulated as an aqueous suspension containing hydroxypropyl cellulose, polysorbate 80 and benzyl alcohol adjusted to pH 3.5 with HCl or NaOH at a dose equivalent to (0.127 mmol) and was administered orally by gavage. A blood sample (0.3 mL) was collected from the treated rats at, 2, 4, 6 and 8 h from the orbital sinus and at 24 h by cardiac puncture. A sample of at least 0.3 mL of blood was withdrawn from the untreated animals 3 h after dosing. Potassium oxalate/NaF and lithium heparin were added to the samples which were stored on ice during sampling procedure. The samples were spun in a refrigerated centrifuge at […] as soon as possible and the plasma samples were stored −20° C. immediately after centrifugation and later transferred to a −80° C. freezer until analysis. Aliquots of plasma (0.05 mL) were mixed with 0.35 mL of an internal standard (and 0.05 mL of acetonitrile containing 0.1% formic acid. A set of calibration standards was prepared by mixing 0.05-mL aliquots of plasma from untreated rats with 0.05-mL aliquots of standard solution in acetonitrile containing 0.1% formic acid and 0.35-mL aliquots of the internal standard in acetonitrile containing 0.1% formic acid). Each plasma sample and calibration standard was vortexed thoroughly and then centrifuged (3000×g) at 4° C. for 20 min to precipitate the protein. Each supernatant from centrifugation was transferred into a separate injection vial for LC/MS/MS analysis.

As to `Cn1c(Cc2ccc(Cl)c(Oc3cc(Cl)cc(C#N)c3)c2F)nn(CO)c1=O` [Compound I-1], the melting point (as a rule, the temperature of the solid-liquid transition) lay within 145.8 to 149.5 °C.
Still for that read-out and setting: next, `Cn1c(Cc2ccc(Cl)c(Oc3cc(Cl)cc(C#N)c3)c2F)nn(COC(=O)CCC(=O)O)c1=O` [Compound I-2, Succinic acid mono-{3-[4-chloro-3-(3-chloro-5-cyano-phenoxy)-2-fluoro-benzyl]-4-methyl-5-oxo-4,5-dihydro-[1,2,4]triazol-1-ylmethyl}ester]: 136.6 to 141.9 °C; `Cn1c(Cc2ccc(Cl)c(Oc3cc(C#N)cc(C#N)c3)c2F)nn(CO)c1=O` [Compound I-3]: 158.9 to 162.2 °C; `Cn1c(Cc2ccc(Cl)c(Oc3cc(C#N)cc(C#N)c3)c2F)nn(COC(=O)CCC(=O)O)c1=O` [Compound I-4, Succinic acid mono-{3-[4-chloro-3-(3,5-dicyano-phenoxy)-2-fluoro-benzyl]-4-methyl-5-oxo-4,5-dihydro-[1,2,4]triazol-1-ylmethyl}ester]: 141.6 to 143.3 °C.
On the same count and under the same terms, next, `Cn1c(Cc2ccc(Cl)c(Oc3cc(C#N)cc(C(F)F)c3)c2F)nn(COC(=O)CCC(=O)O)c1=O` [Compound I-5, Succinic acid mono-{3-[4-chloro-3-(3-cyano-5-difluoromethyl-phenoxy)-2-fluoro-benzyl]-4-methyl-5-oxo-4,5-dihydro-[1,2,4]triazol-1-ylmethyl}ester]: 150.5 to 151.1 °C.
The same measure, in the same setting: next, `Cc1ccc(Cc2nn(COC(=O)CCC(=O)O)c(=O)n2C)c(F)c1Oc1cc(C#N)cc(C(F)F)c1` [Compound I-7, Succinic acid mono-{3-[3-(3-cyano-5-difluoromethyl-phenoxy)-2-fluoro-4-methyl-benzyl]-4-methyl-5-oxo-4,5-dihydro-[1,2,4]triazol-1-ylmethyl}ester]: 139.2 to 140.5 °C; `Cn1c(Cc2ccc(Br)c(Oc3cc(C#N)cc(C(F)F)c3)c2F)nn(COC(=O)CCC(=O)O)c1=O` [Compound I-9, Succinic acid mono-{3-[4-bromo-3-(3-cyano-5-difluoromethyl-phenoxy)-2-fluoro-benzyl]-4-methyl-5-oxo-4,5-dihydro-[1,2,4]triazol-1-ylmethyl}ester]: 156.7 to 158 °C.
`CCc1ccc(Cc2nn(COC(=O)CCC(=O)O)c(=O)n2C)c(F)c1Oc1cc(C#N)cc(C(F)F)c1` [Compound I-11, succinic acid mono-{3-[3-(3-cyano-5-difluoromethyl-phenoxy)-4-ethyl-2-fluoro-benzyl]-4-methyl-5-oxo-4,5-dihydro-[1,2,4]triazol-1-ylmethyl}ester]: the melting point fell in the range of 152.2 to 153.5 °C.
Turning to `Cn1c(Cc2ccc(Cl)c(Oc3cc(C#N)cc(C(F)F)c3)c2F)n[nH]c1=O` [parent], the “AUC (area under concentration vs. time curve, 0–24 h)” value in series [1] (dose 152 mg/kg (equimolar to I-5 200 mg/kg)) was determined as 68800 ng·h/mL; in series [1] (dose 530 mg/kg (equimolar to I-5 700 mg/kg)), 85400 ng·h/mL. The concentration at 2 h in series [1] (dose 152 mg/kg) is 2740 ng/mL; in series [1] (dose 530 mg/kg), 3180 ng/mL. For the same compound, the concentration at 6 h in series [1] (dose 152 mg/kg) came out at 5020 ng/mL; in series [1] (dose 530 mg/kg), 5970 ng/mL.
